Key:
Type in all cases: cell-based, human
[1] = system: Circulating Tumour Cells (CTCs) from a patient with colon cancer (sigmoid colon cancer); test: Drug response score assay on CTCs from blood, Example 8; parameters: key to Drug response score, conc. 1 / Drug response score, conc. 2 / Drug response score, conc. 3 / Drug response score, conc. 4: normalized drug response metric (Gupta et al. 2020); conditions: for Drug response score, conc. 1: conc. 1 of each drug as in Table 24; for Drug response score, conc. 1 / Drug response score, conc. 2 / Drug response score, conc. 3 / Drug response score, conc. 4: CTCs, t96h; for Drug response score, conc. 2: conc. 2 of each drug as in Table 24; for Drug response score, conc. 3: conc. 3 of each drug as in Table 24; for Drug response score, conc. 4: conc. 4 of each drug as in Table 24; for Drug sensitivity as calculated by the assay (interpretation of Drug Response Scores): Table 26
Procedure: (§1) CD45^+ cells and circulating tumour cells (CTCs) were isolated from a blood sample provided by each subject.
(§2) CD45 separation was performed by adding human CD45 microbeads (50 μl/ml blood), incubating for 15 minutes at 4° C. and then processing using an AutoMACS machine. This separates the blood sample into CD45^+ and CD45^−cells in 2 separate falcons. The falcon tubes are then centrifuged at 1200 rpm for 5 minutes.
(§3) The supernatant was removed from the CD45^−falcon tube, and the CD45^−cells contacted with 100 μl of FcR block and 100 μl of CD326 (EpCAM) MicroBeads, followed by incubation at […] 4° C. for 30 minutes. The CD45^−cells were then processed using an AutoMACS machine to separate the EpCAM positive and negative cells into 2 separate falcon tubes. The EpCAM-cells were discarded. The supernatant was removed from the EpCAM^+ cells, and the cells resuspended in DMEM with 2 μl Cell Tox, 2 μl MT and 2 μl MT. 20 μl of the resuspended pellet was then added to all sample wells excluding a blank. After all wells are added to, a cell count was conducted on the […] to determine the number of circulating tumour cells (CTCs).
(§4) After attachment, an initial imaging step was carried out using the RealTime-Glo™ MT assay from Promega (Catalogue No. G9711)) and the CellTox™ Green Cytotoxicity Assay (Promega, Catalogue No. G8741), carried out according to manufacturer's instructions. Following this initial imagining, the immunotherapeutic and/or chemotherapeutic agents were added to the cell populations as indicated below. After 10 minutes, the imagining step was repeated. The cell populations were then incubated at 37° C., 5% CO2 for 48 hours. The imaging step was then repeated. The cell populations were then re-dosed with the same immunotherapeutic and/or chemotherapeutic agents as indicated below, and incubated at 37° C., 5% CO2 for a further 48 hours. After this second 48 hour incubation, the imagining step was repeated for a final time.
(§5) At the end of this culture period, dose response scores were calculated using a normalized drug response metric as described in Gupta et al. (Communications Biology volume 3, Article number: 42 (2020), https://doi.org/10.1038/s42003-020-0765-z). The start readout for a given immunotherapeutic or chemotherapeutic agent at a given concentration was the to readout for said immunotherapeutic or chemotherapeutic agent at a specified concentration. The end readout for a given immunotherapeutic or chemotherapeutic agent at a given concentration was the final timepoint reading (t96h) for said immunotherapeutic or chemotherapeutic agent at a specified concentration.
(§6) The positive control start readout for a given drug/concentration was the to readout for the corresponding drug at a specified concentration. The positive control end readout for the corresponding drug at a specified concentration was the final timepoint reading (t96h) for the corresponding blank well.
(§7) The negative control start and end readouts for a given immunotherapeutic or chemotherapeutic agent at a given concentration were the to and final timepoint reading (t96h) respectively for blank cell or blank immuno cell well respectively.
(§8) The sensitivity or resistance of a subject's cancer to a given immunotherapeutic or chemotherapeutic agent was determined based on the calculated drug response score as shown in Table 2.
Blood samples from a patient with colon cancer (sigmoid colon cancer) were received on 8 Mar. 2022 and tested using a 9 drug panel.
Chemotherapeutic agents were tested as in Table 24.

[2] = system: Circulating Tumour Cells (CTCs, EpCam+CD45−) from a patient with stage II synovial sarcoma; test: Drug response score assay (RealTime-Glo MT / CellTox Green, PCL scaffold) on CTCs from blood, Example 1; parameters: key to Drug response score, conc. 1 / Drug response score, conc. 2 / Drug response score, conc. 3 / Drug response score, conc. 4: normalized drug response metric per Gupta et al. 2020; conditions: for Drug response score, conc. 1: conc. 1: Doxo 10 ng/ml, Ifos 0.125 μg/ml, Gemcit 2 μg/ml, Doce 0.02 μg/ml, Carbo 2 μg/ml, Dacarb 1.5 μg/ml, re-dosed at 48 h; for Drug response score, conc. 1 / Drug response score, conc. 2 / Drug response score, conc. 3 / Drug response score, conc. 4: CTCs, t96h; for Drug response score, conc. 2: conc. 2: Doxo 30 ng/ml, Ifos 0.25 μg/ml, Gemcit 10 μg/ml, Doce 0.2 μg/ml, Carbo 5 μg/ml, Dacarb 3 μg/ml; for Drug response score, conc. 3: conc. 3: Doxo 90 ng/ml, Ifos 5 μg/ml, Gemcit 20 μg/ml, Doce 2 μg/ml, Carbo 10 μg/ml, Dacarb 6 μg/ml; for Drug response score, conc. 4: conc. 4: Doxo 270 ng/ml, Ifos 10 μg/ml, Gemcit 40 μg/ml, Doce 10 μg/ml, Carbo 20 μg/ml, Dacarb 12 μg/ml
Procedure: as §1, §2, §3
as §4, with “The different cell types were each divided equally into populations, depending on the number of drugs/concentrations to be tested and plated on a cell-culture plate pre-coated with a scaffold of polycaprolactone (PCL) electrospun fibres and incubated at 37° C., 5% CO2, for 5 to (typically 10) minutes to facilitate cell attachment. After attachment,” for “After attachment,”
as §5, §6, §7, §8
Blood samples from a patient with stage II synovial sarcoma (suspected spindle cell tumour) were received and tested using a 6 drug panel.
Chemotherapeutic agents were tested as in Table 3.

[3] = system: Circulating Tumour Cells (CTCs) from a patient with sex cord stromal tumour, ovarian tumour; test: Drug response score assay on CTCs from blood, Example 4; parameters: key to Drug response score, conc. 1 / Drug response score, conc. 2 / Drug response score, conc. 3 / Drug response score, conc. 4: normalized drug response metric (Gupta et al. 2020); conditions: for Drug response score, conc. 1: conc. 1: Cyclo 2.5 μg/ml, Vinc 10 ng/ml, Etop 1 μg/ml, Bini 100 ng/ml, Doxo 10 ng/ml; for Drug response score, conc. 1 / Drug response score, conc. 2 / Drug response score, conc. 3 / Drug response score, conc. 4: CTCs, t96h; for Drug response score, conc. 2: conc. 2: Cyclo 10 μg/ml, Vinc 20 ng/ml, Etop 4 μg/ml, Bini 200 ng/ml, Doxo 30 ng/ml; for Drug response score, conc. 3: conc. 3: Cyclo 40 μg/ml, Vinc 40 ng/ml, Etop 20 μg/ml, Bini 400 ng/ml, Doxo 90 ng/ml; for Drug response score, conc. 4: conc. 4: Cyclo 160 μg/ml, Vinc 80 ng/ml, Etop 100 μg/ml, Bini 800 ng/ml, Doxo 270 ng/ml; for effectiveness on Circulating Tumour Cells (CTCs) under laboratory conditions / Drug sensitivity as calculated by the assay (interpretation of Drug Response Scores): sex cord stromal / ovarian tumour CTCs; for Drug sensitivity as calculated by the assay (interpretation of Drug Response Scores): Table 14
Procedure: as §1, §2, §3
as §4, with “The different cell types were each divided equally into populations, depending on the number of drugs/concentrations to be tested and plated on a cell-culture plate pre-coated with a scaffold of polycaprolactone (PCL) electrospun fibres and incubated at 37° C., 5% CO2, for 5 to (typically 10) minutes to facilitate cell attachment. After attachment,” for “After attachment,”
as §5, §6, §7, §8
Blood samples from a patient with sex cord stromal tumour, ovarian tumour (epitheliod neoplasm, stage 3 recurrence after surgery (resection) and previous chemotherapy) were received on 19 Jul. 2021 and tested using a 5 drug panel. […]

[4] = system: Circulating Tumour Cells (CTCs) from a patient with renal cancer; test: Drug response score assay on CTCs (with CD45+ cells for immunotherapy) from blood, Example 7; parameters: key to Drug response score, conc. 1 / Drug response score, conc. 2 / Drug response score, conc. 3 / Drug response score, conc. 4: normalized drug response metric per Gupta et al. 2020; conditions: for Drug response score, conc. 1: conc. 1: Pembr 20 μg/ml (CTCs + CD45+ cells), Docetax 0.02 μg/ml, Gemcit 2 μg/ml, Topo 5 μg/ml, Etop 1 μg/ml, Eribul 5 μg/ml (CTCs); for Drug response score, conc. 1 / Drug response score, conc. 2 / Drug response score, conc. 3 / Drug response score, conc. 4: t96h; for Drug response score, conc. 2: conc. 2: Pembr 40 μg/ml (CTCs + CD45+ cells), Docetax 0.2 μg/ml, Gemcit 10 μg/ml, Topo 10 μg/ml, Etop 4 μg/ml, Eribul 10 μg/ml (CTCs); for Drug response score, conc. 3: conc. 3: Pembr 100 μg/ml (CTCs + CD45+ cells), Docetax 2 μg/ml, Gemcit 20 μg/ml, Topo 50 μg/ml, Etop 20 μg/ml, Eribul 20 μg/ml (CTCs); for Drug response score, conc. 4: conc. 4: Pembr 160 μg/ml (CTCs + CD45+ cells), Docetax 10 μg/ml, Gemcit 40 μg/ml, Topo 100 μg/ml, Etop 100 μg/ml, Eribul 40 μg/ml (CTCs); for Drug sensitivity as calculated by the assay (interpretation of Drug Response Scores): Table 23
Procedure: as §1, §2
The supernatant was removed from the CD45^+falcon tube, and the cells resuspended in DMEM with 2 μl Cell Tox, 2 μl MT and 2 μl MT. 20 μl of the resuspended CD45^+ cells was then plated in each well which will contain an immunotherapy treatment.
as §3
as §4, with “The different cell types were each divided equally into populations, depending on the number of drugs/concentrations to be tested and plated on a cell-culture plate pre-coated with a scaffold of polycaprolactone (PCL) electrospun fibres and incubated at 37° C., 5% CO2, for 5 to (typically 10) minutes to facilitate cell attachment. After attachment,” for “After attachment,”
as §5, §6, §7
The sensitivity or resistance of a subject's cancer to a given immunotherapeutic or chemotherapeutic agent was determined based on the calculated drug response score as shown in Table 2. […]

| SMILES | Drug response score, conc. 1 [1] | Drug response score, conc. 2 [1] | Drug response score, conc. 3 [1] | Drug response score, conc. 4 [1] | Drug sensitivity as calculated by the assay (interpretation of Drug Response Scores) ([1]; sigmoid colon cancer CTCs) | Drug response score, conc. 1 [3] | Drug response score, conc. 2 [3] | Drug response score, conc. 3 [3] | Drug response score, conc. 4 [3] | effectiveness on Circulating Tumour Cells (CTCs) under laboratory conditions [3] | Drug sensitivity as calculated by the assay (interpretation of Drug Response Scores) [3] | also measured |
| --- | --- | --- | --- | --- | --- | --- | --- | --- | --- | --- | --- | --- |
| N.N.O=C([O-])C1(C(=O)[O-])CCC1.[Pt+2] [Carboplatin] | 6.6672 | −0.0506 | −0.8131 | −0.1322 | Sensitive (S++) | – | – | – | – | – | – | Drug response score, conc. 1 [2]: 1.4015; Drug response score, conc. 2 [2]: 0.6497; Drug response score, conc. 3 [2]: 0.4151; Drug response score, conc. 4 [2]: 0.4317; Drug sensitivity as calculated by the assay (interpretation of Drug Response Scores) ([2]; synovial sarcoma CTCs, Table 5): Sensitive (S+) |
| O=P1(N(CCCl)CCCl)NCCCO1 (stereo not drawn) [Cyclophosphamide] | −0.3176 | 0.9581 | 0.6810 | 2.5058 | Sensitive (S+) | 0.97 | 0.58 | 0.41 | 0.94 | show effectiveness | Sensitive (S++) | effectiveness on Circulating Tumour Cells under laboratory conditions ([1]; sigmoid colon cancer CTCs): S+ |
| CC[C@@]1(O)C(=O)OCc2c1cc1n(c2=O)Cc2cc3c(CN(C)C)c(O)ccc3nc2-1 [Topotecan] | – | – | – | – | – | – | – | – | – | – | – | Drug response score, conc. 1 [4]: 0.1847; Drug response score, conc. 2 [4]: −0.0648; Drug response score, conc. 3 [4]: −0.0964; Drug response score, conc. 4 [4]: −0.1707; effectiveness on Circulating Tumour Cells under laboratory conditions ([4]; renal cancer CTCs): Sensitive S++; Drug sensitivity as calculated by the assay (interpretation of Drug Response Scores) ([4]; renal cancer CTCs): Sensitive (S++) |
| CN(C)/N=N/c1[nH]cnc1C(N)=O [Dacarbazine] | – | – | – | – | – | – | – | – | – | – | – | Drug response score, conc. 1 [2]: 2.1563; Drug response score, conc. 2 [2]: 0.0887; Drug response score, conc. 3 [2]: 0.1691; Drug response score, conc. 4 [2]: 0.5700 |
| Cn1cnc2c(F)c(Nc3ccc(Br)cc3F)c(C(=O)NOCCO)cc21 [Binimetinib] | – | – | – | – | – | 0.93 | 1.18 | 1.19 | 1.06 | not effective | Resistant | – |
| C=C1C[C@@H]2CC[C@@]34C[C@H]5O[C@H]6[C@@H](O3)[C@H]3O[C@H](CC[C@@H]3O[C@H]6[C@H]5O4)CC(=O)C[C@@H]3[C@@H](OC)[C@@H](C[C@H](O)CN)O[C@H]3C[C@H]3O[C@@H](CC[C@@H]1O2)C[C@@H](C)C3=C [Eribuline] | 4.4627 | −0.1620 | −0.0329 | −0.4785 | Sensitive (S++) | – | – | – | – | – | – | Drug response score, conc. 1 [4]: 0.4482; Drug response score, conc. 2 [4]: 0.0692; Drug response score, conc. 3 [4]: −0.1453; Drug response score, conc. 4 [4]: −0.0193; Drug sensitivity as calculated by the assay (interpretation of Drug Response Scores) ([4]; renal cancer CTCs): Sensitive (S+) |
| CC[C@]1(O)C[C@H]2CN(CCc3c([nH]c4ccccc34)[C@@](C(=O)OC)(c3cc4c(cc3OC)N(C=O)[C@H]3[C@@](O)(C(=O)OC)[C@H](OC(C)=O)[C@]5(CC)C=CCN6CC[C@]43[C@@H]65)C2)C1 [Vincristine] | – | – | – | – | – | 3.35 | 1.24 | 1.83 | 1.29 | not effective | Resistant | – |

Source: patent US20250290915A1, “METHOD FOR PREDICTING RESPONSIVENESS TO THERAPY” (CANCERTAIN LIMITED, priority 2022, published 2025)
